Experimental data: US9815866B2, “Peptides that bind to epithelial cell adhesion molecule” (JAPANESE FOUNDATION FOR CANCER RESEARCH, priority 2012, dated 2017)
Bridge positions count the residues as written; N and C are the ends. Ends that are not written are not given here. Peptide text beside a SMILES is read from it. * marks the point of attachment. Biotin = O=C1N[C@H]2[C@H](CS[C@H]2CCCCC(=O)*)N1

Experiments:
[1] = target: T1, EpCAM on HT-29 (Homo sapiens, UniProt P16422); test: Staining of spheroid-cultured HT-29 cells with FITC-modified peptide; type: cell-based; parameters: endogenous in cells; host or cells: HT-29; conditions: FITC-labeled peptide, 0.4 μM
T1 sequence (P16422 24-314): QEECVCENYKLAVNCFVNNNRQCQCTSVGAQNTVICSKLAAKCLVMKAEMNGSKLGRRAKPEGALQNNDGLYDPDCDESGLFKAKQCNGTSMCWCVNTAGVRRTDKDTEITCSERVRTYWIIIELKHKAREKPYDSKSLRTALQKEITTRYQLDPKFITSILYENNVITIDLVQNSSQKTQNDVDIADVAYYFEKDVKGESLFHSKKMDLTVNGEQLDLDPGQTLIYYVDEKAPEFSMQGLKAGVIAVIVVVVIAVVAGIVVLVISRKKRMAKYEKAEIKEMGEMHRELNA
Procedure: The HT-29 cells as EpCAM-expressing cells were cultured by spheroid culture method as follows: 4×10^5 cells are suspended in 3 ml of D-MEM/F-12 medium (Dulbecco's Modified n Eagle Medium:Nutrient Mixture 12, 1:1 mixture) (Gibco/Life Technologies Inc.) supplemented with 20 ng/ml human EGF (Miltenyi Biotec K.K.), 20 ng/ml human EGF-2 (Miltenyi Biotec K.K.), B-27 (Gibco/Life Technologies Inc.), penicillin, and streptomycin and inoculated to EZ-Sphere®, a Petri dish of 3.5 cm in diameter coated with MPC polymer. After static culture for 72 hours, the cells were collected while the medium was suspended by pipetting. The cells were stained with the FITC-modified peptide and observed under a fluorescence microscope. […]

[2] = target: T2, 293T cells transfected with full-length EpCAM gene (Homo sapiens, UniProt P16422); test: Staining of 293T cells forced to express EpCAM with FITC-modified peptide; type: cell-based
T2 construct: an expression plasmid in which the full-length EpCAM gene incorporated; expressed in transfected cells; host or cells: 293T
T2 sequence (P16422 24-314): T1 sequence (P16422 24-314)
Text: 293T cells expressing no endogenous EpCAM were transfected with pkk196, an expression plasmid in which the full-length EpCAM gene incorporated, and forced to express EpCAM, followed by staining using FITC-modified Ep114.

[3] = target: T3, EpCAM (Homo sapiens, UniProt P16422); test: Binding activity against EpCAM after oxidation treatment (S—S bond formation, HPLC fractionation)
T3 sequence (P16422 24-314): T1 sequence (P16422 24-314)

[4] = target: T4, EpCAM (Homo sapiens, UniProt P16422); test: ELISA with immobilized biotinylated peptide and purified EpCAM; type: binding; conditions: purified EpCAM 0, 10 or 100 ng
T4 construct: with insertions myc and His tags at the C terminus of the extracellular domain; myc (C); made in house; host or cells: HEK-293T
T4 sequence (P16422 24-265 limits assumed): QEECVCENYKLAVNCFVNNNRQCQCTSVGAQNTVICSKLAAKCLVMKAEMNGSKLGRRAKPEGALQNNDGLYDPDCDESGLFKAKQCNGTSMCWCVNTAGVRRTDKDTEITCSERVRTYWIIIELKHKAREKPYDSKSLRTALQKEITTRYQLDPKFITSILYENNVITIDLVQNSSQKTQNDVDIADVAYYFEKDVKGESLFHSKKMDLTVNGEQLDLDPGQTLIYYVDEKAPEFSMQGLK
Procedure: was immobilized onto an ELISA plate via streptavidin, and purified EpCAM was added thereto in an amount of 0, 10, or 100 ng and reacted. After washing, bound EpCAM was detected using the anti-EpCAM antibody. A biotin-modified peptide PE194 (Ac-[…](biotin)-NH2) (SEQ ID NO: 13) of the L3A variant (non-EpCAM-binding variant) was used as a control.

[5] = target: T4, EpCAM; test: Dissociation constant of EpCAM-binding peptide and EpCAM by fluorescence depolarization method; conditions: FITC-modified peptide; Kd estimated by curve fitting, Hill equation; N.B.: Not bound
Procedure: The obtained EpCAM peptides were assayed for their strength of binding to EpCAM by the fluorescence depolarization method, which is a method for evaluating the interaction between molecules. Each fluorescently labeled EpCAM peptide and EpCAM are used to determine the strength of binding from the kinetics of depolarization by Brownian movement.
Each FITC-modified EpCAM peptide or control peptide was suspended at a concentration of approximately 100 μM in PBS. After centrifugation, the supernatant was collected and diluted 10-fold, and the absorbance was measured at 495 nm From the measurement value, the molar concentration of the peptide was determined using the formula of Beer-Lambert of the following expression 1: A=E×b×C [Expression 1]
EpCAM is diluted with PBS into several concentrations from 0 until reaching equilibrium (40 nM for the Ep133 peptide), and the FITC-modified peptide whose precise concentration has been measured by the aforementioned method is added to the dilutions thus prepared. The sample was left at a temperature for measurement for 30 minutes or longer and subjected to polarization measurement using a spectrofluorometer FP-6500 (JASCO Corp.) equipped with an automatic polarization measurement unit (JASCO Corp., APH-103). Kd was estimated by curve fitting according to the Hill equation.
The dissociation constants of the two types of peptides Ep133 (FIG. 2(A)) and Ep114 (FIG. 2(C)), which were obtained in the present invention and had the high ability to bind to EpCAM, were measured by the fluorescence depolarization method.
The dissociation constants of the EpCAM-binding peptide Ep301 (FIG. 2(D)) disclosed in Patent Literature 2 and Ep301 control (FIG. 2(E)), which was a control peptide derived from Ep301 by the substitution of cysteine at positions 5 and 10 by serine, and a sequence of EpCAM from residue 106 to 119 (FIG. 2(F)) having partial homology to EpCAM-binding peptides were measured similarly.

[6] = target: T5, EpCAM-expressing cells HT-29 (Homo sapiens, UniProt P16422); test: Cell staining of HT-29 cells, confocal microscope; type: cell-based; conditions: HT-29, FITC-labeled peptide 0.4 μM, 37° C., 1 hour
T5 construct: EpCAM on HT-29 was stained at a concentration of 0.4 μM; endogenous in cells; host or cells: HT-29
T5 sequence (P16422 24-314): T1 sequence (P16422 24-314)
Procedure: The EpCAM-expressing cells HT-29 or the non-expressing cells Hs578T were cultured in a medium containing 10% fetal calf serum in a Petri dish for 48 hours and then incubated at 37° C. for 1 hour with the FITC-labeled Ep114 peptide or a L3A control labeled peptide at a final concentration of 0.4 μM Immediately thereafter, the cells were observed under a confocal microscope.

[7] = test system: anti-Ep114 antibody; test: Immunoprecipitation with biotinylated Ep114 on streptavidin beads: binding to anti-Ep114 antibody; parameters: species or system rabbit; conditions: peptide on streptavidin-magnetic beads, Western blot
Procedure: 250 μg of streptavidin-magnetic beads (Dynabeads® M-280 streptavidin, VERITAS Corp.) in TBS containing 2% BSA was added to 20 μg of the biotinylated Ep114 peptide and shaken at room temperature for 30 minutes, followed by washing with TBS. Beads reacted without the peptide were used as a control. The anti-Ep114 antibody was added to the beads in TBST and reacted at room temperature for 1 hour. After washing with TBS, the beads were collected. The collected beads were heated at 95° C. for 5 minutes in a SDS sample buffer. After Western-blotting, the anti-Ep114 antibody was detected using HRP-labeled anti-rabbit antibodies.
A schematic diagram of the reaction with the magnetic beads is shown in the left panel of FIG. 5A, and the Western blot results are shown on the right panel thereof.

[8] = target: T4, EpCAM; test: ELISA with ferritin-fused Ep114 peptide; type: binding; conditions: either partner immobilized
Procedure: Ep114 was fused to the N terminus of Fer8 (Non Patent Literature 6), a ferritin derivative, and used in analysis.
1 μg of the ferritin-fused Ep114 peptide (Ep114/fer8) or ferritin (fer8) was immobilized onto an ELISA plate. Then, purified EpCAM was added thereto at different concentrations. Bound EpCAM was detected using the anti-EpCAM antibody (FIG. 8A).
Next, 0.2 μg of purified EpCAM was immobilized onto an ELISA plate. Then, the ferritin-fused Ep114 peptide (Ep114/fer8) or ferritin (fer8) was added thereto at different concentrations. Bound Ep114 peptide (Ep114/fer8) or ferritin (fer8) was detected using an anti-ferritin antibody (FIG. 8B).

114-FITC: FITC-labeled Ep114 peptide (KHLQCVRNICWS; cysteine pairing not given here; also: FITC-labeled, position not given here) [Peptide 114-FITC]
staining of EpCAM on HT-29 spheroids [1]: stained

114control-FITC: FITC-labeled Ep114 control peptide in which cysteine at positions 5 and 10 is substituted by serine (KHLQSVRNISWS; also: FITC-labeled, position not given here) [reference compound]
staining of EpCAM on HT-29 spheroids [1]: no staining is observed

133-FITC: FITC-labeled Ep133 peptide (EHLHCLGSLCWP; cysteine pairing not given here; also: FITC-labeled, position not given here) [Peptide 133-FITC]
staining of EpCAM on HT-29 spheroids [1]: stained

133control-FITC: FITC-labeled Ep133 control peptide in which cysteine at positions 5 and 10 is substituted by serine (EHLHSLGSLSWP; also: FITC-labeled, position not given here) [reference compound]
staining of EpCAM on HT-29 spheroids [1]: no staining is observed

CC(C)C[C@@H]1NC(=O)[C@@H](NC(=O)[C@H](Cc2c[nH]cn2)NC(=O)[C@H](CC(C)C)NC(=O)[C@H](Cc2c[nH]cn2)NC(=O)[C@@H](N)CCC(=O)O)CSSC[C@@H](C(=O)N[C@@H](Cc2c[nH]c3ccccc23)C(=O)N2CCC[C@H]2C(=O)O)NC(=O)[C@H](CC(C)C)NC(=O)[C@H](CO)NC(=O)CNC1=O [Ep133, EHLHCLGSLCWP] (H-EHLHCLGSLCWP-OH; disulfide 5-10; N-terminus and C-terminus assumed)
ability to bind to EpCAM without active oxidation treatment ([2]; data not shown): did not show the ability to bind to EpCAM
binding activity against EpCAM [3]: only a fraction of the peptides having the S—S bond showed binding activity against EpCAM

Ac-KHAQCVRNICWSPPPPPPKK(Biotin)-NH2 (cysteine pairing not given here) [PE194, reference compound]
ELISA signal [4]: increase in signal intensity was rarely observed

Ac-KHLQCVRNICWSPPPPPPKK(Biotin)-NH2 (cysteine pairing not given here) [PE183]
ELISA signal [4]: enhancement in ELISA signal proportional to the amount of EpCAM added

EHLHSLGSLSWP [Ep133 control, Ep133 with cysteine at positions 5 and 10 substituted by serine]
Kd (nM) [5]: N.B.

Ep114Cys: FITC-modified Ep114 peptide that did not undergo oxidation treatment (KHLQCVRNICWS; also: FITC-modified, position not given here, no oxidation treatment, cysteines not deliberately cross-linked)
ability to stain EpCAM ([2]; FITC-modified peptide with or without oxidation treatment): equivalent ability to stain EpCAM

KAKQCNGTSMCWPK [EpCAM partial sequence]
Kd (nM) [5]: N.B.

KSLQSINNLSWP [Ep301 control, Ep301 with cysteine at positions 5 and 10 substituted by serine]
Kd (nM) [5]: N.B.

L3A variant: FITC-labeled Ep114 variant peptide with leucine at 3rd residue substituted by alanine, staining control (KHAQCVRNICWS; cysteine pairing not given here; also: FITC-labeled, position not given here) [reference compound]
staining of cell membrane portions [6]: no staining was observed

biotinylated Ep114: Ep114 peptide biotinylated at the stage of its synthesis, without linker (KHLQCVRNICWS; cysteine pairing not given here; also: biotin label, position not given here)
binding to anti-Ep114 antibody [7]: bound with the anti-Ep114 antibody

ferritin-fused Ep114 peptide: Ep114 fused to the N terminus of Fer8, a ferritin derivative (KHLQCVRNICWS; not fully specified (C-terminus, bridges); cysteine pairing not given here; also: fused to ferritin Fer8 (recombinant carrier), not in the letters)
detection of EpCAM [8]: capable of sensitively detecting EpCAM
